{"source": "patent US6235509A", "about": "(priority 1996, dated 2001)", "tested_on": "chymotrypsin", "assay_type": "biochemical", "conditions": "pH 8.0"}
{"smiles": "Oc1cccnc1", "note": "[3-hydroxypyridine]", "values": [{"measurement": "kinetics of the inhibition of chymotrypsin by AEBSF", "value": "not changed"}]}
